Measured values as given in ChEMBL document CHEMBL4808169, “Discovery of Potent and Fast-Acting Antimalarial Bis-1,2,4-triazines” (J Med Chem, 2021).
≈ marks a conversion by molar mass, not a printed value. Calls of active or inactive are those of the source. No cut-off for these calls is given here.

Legend:
[1] = system: Plasmodium falciparum; experiment: microbe, parasite or virus in culture; details: 3D7, 72 h
Description: Antimalarial activity against Plasmodium falciparum 3D7 infected in human red blood cells after 72 hrs by DAPI-staining based assay

[2] = system: Plasmodium falciparum; experiment: Antimalarial activity against Plasmodium falciparum 3D7 infected in human red blood cells at 40 uM after 72 hrs by DAPI-staining based assay relative to control; assay type: functional
[3] = Kinetic solubility of compound at pH 2 by nephelometry; assay type: physicochemical; details: buffer, read-out: Kinetic_solubility
[4] = Kinetic solubility of compound at pH 6.5 by nephelometry; assay type: physicochemical; details: buffer, read-out: Kinetic_solubility
[5] = Intrinsic clearance in human liver microsomes assessed per mg of protein in presence of NADPH by UPLC-MS analysis; assay type: ADME, Microsome; details: read-out: CLH
[6] = Intrinsic clearance in mouse liver microsomes in presence of NADPH by UPLC-MS analysis; assay type: ADME, Microsome
[7] = Half life in human liver microsomes in presence of NADPH by UPLC-MS analysis; assay type: ADME, Microsome
[8] = Half life in mouse liver microsomes in presence of NADPH by UPLC-MS analysis; assay type: ADME, Microsome
[9] = system: Plasmodium falciparum; experiment: Bactericidal activity against Plasmodium falciparum 3D7A at 10 times IC50; assay type: functional, organism-based
[10] = system: Plasmodium berghei; experiment: Antiplasmodial activity against Plasmodium berghei ANKA infected in po dosed Swiss mouse administered at 2 hrs post infection and measured on day 4 by Peter's 4-day test; assay type: functional

COc1nncc(-c2cnnc(SCCN(C)C)n2)n1
IC50 [1]: 850 nM

COCCOc1nncc(-c2cnnc(OCCOC)n2)n1
Activity [2]: 100%

CC(C)Sc1nncc(-c2cnnc(OCCN(C)C)n2)n1
IC50 [1]: 12 nM

CC#CCOc1nncc(-c2cnnc(OCC#CC)n2)n1
IC50 [1]: 1000 nM

CSc1nncc(-c2cnnc(OC(C)CN(C)C)n2)n1 (configuration not stated)
IC50 [1]: 32 nM

CN(C)CCOc1nncc(-c2cnnc(OCCN(C)C)n2)n1
IC50 [1]: 8600 nM

CC(C)Oc1nncc(-c2cnnc(OC(C)C)n2)n1
IC50 [1]: 2000 nM

CCCOc1nncc(-c2cnnc(SCCN(C)C)n2)n1
IC50 [1]: 11 nM

CN(C)CCOc1nncc(-c2cnnc(OCCC(F)(F)F)n2)n1
solubility kinetic [3]: 50 µg/mL (≈ 139 µM)
solubility kinetic [4]: 50 µg/mL (≈ 139 µM)
microsomal CLint [5]: 7 µL/min/mg
microsomal CLint [6]: 33 µL/min/mg
half-life [7]: 232 min
half-life [8]: 53 min
IC50 [1]: 54 nM

[N-]=[N+]=NCCCSc1nncc(-c2cnnc(SCCCN=[N+]=[N-])n2)n1
IC50 [1]: 31 nM

CC(C)Oc1nncc(-c2cnnc(SCCN(C)C)n2)n1
IC50 [1]: 81 nM

FC(F)(F)COc1nncc(-c2cnnc(OCC(F)(F)F)n2)n1
IC50 [1]: 420 nM

CCCCc1nncc(-c2cnnc(CCCC)n2)n1
IC50 [1]: 340 nM

CCCCc1nncc(-c2cnnc(SCCN(C)C)n2)n1
solubility kinetic [3]: 50 µg/mL (≈ 157 µM)
solubility kinetic [4]: 25 µg/mL (≈ 78.3 µM)
microsomal CLint [5]: 56 µL/min/mg
microsomal CLint [6]: 330 µL/min/mg
half-life [7]: 31 min
half-life [8]: 5 min
IC50 [1]: 9 nM

CC(CN(C)C)Oc1nncc(-c2cnnc(OC(C)CN(C)C)n2)n1 (configuration not stated)
IC50 [1]: 12000 nM

C[Si](C)(C)CCOc1nncc(-c2cnnc(OCC[Si](C)(C)C)n2)n1
IC50 [1]: 720 nM

CCN(CC)CCCC(C)Nc1ccnc2cc(Cl)ccc12 (configuration not stated) [CHLOROQUINE]
Activity [9]: Active

CC(C)Oc1nncc(-c2cnnc(OCCN(C)C)n2)n1
IC50 [1]: 440 nM

c1nnc(OC2CC2)nc1-c1cnnc(OC2CC2)n1
IC50 [1]: 890 nM

FC(F)(F)CCOc1nncc(-c2cnnc(OCCC(F)(F)F)n2)n1
IC50 [1]: 93 nM

CCCCc1nncc(-c2cnnc(OCCN(C)C)n2)n1
solubility kinetic [3]: 25 µg/mL (≈ 82.4 µM)
solubility kinetic [4]: 25 µg/mL (≈ 82.4 µM)
microsomal CLint [5]: 25 µL/min/mg
microsomal CLint [6]: 109 µL/min/mg
half-life [7]: 69 min
half-life [8]: 16 min
IC50 [1]: 30 nM

C#CCOc1nncc(-c2cnnc(SC)n2)n1
IC50 [1]: 130 nM

CC(C)Sc1nncc(-c2cnnc(SCCN(C)C)n2)n1
IC50 [1]: 210 nM

CCc1nncc(-c2cnnc(SCCN(C)C)n2)n1
solubility kinetic [3]: 50 µg/mL (≈ 172 µM)
solubility kinetic [4]: 25 µg/mL (≈ 85.8 µM)
microsomal CLint [5]: 9 µL/min/mg
microsomal CLint [6]: 118 µL/min/mg
half-life [7]: 199 min
half-life [8]: 15 min
IC50 [1]: 120 nM

CCCOc1nncc(-c2cnnc(OCCC)n2)n1
IC50 [1]: 110 nM

C#CCSc1nncc(-c2cnnc(SC)n2)n1
IC50 [1]: 32 nM

CSc1nncc(-c2cnnc(SCCN(C)C)n2)n1
solubility kinetic [3]: 6.3 µg/mL (≈ 20.4 µM)
solubility kinetic [4]: 6.3 µg/mL (≈ 20.4 µM)

COCCSc1nncc(-c2cnnc(SCCN(C)C)n2)n1
IC50 [1]: 260 nM

Cc1ncsc1CCOc1nncc(-c2cnnc(OCCc3scnc3C)n2)n1
IC50 [1]: 500 nM

C[C@H]1[C@H](OC(=O)CCC(=O)O)O[C@@H]2O[C@@]3(C)CC[C@H]4[C@H](C)CC[C@@H]1[C@@]24OO3 [ARTESUNATE]
Activity [9]: Active
ED50 [10]: 1.37 mg/kg/day

CSc1nncc(-c2cnnc(SCCCN=[N+]=[N-])n2)n1
IC50 [1]: 4.4 nM
